Test results published in patent US10070660B2, “Pet food palatability with antimicrobial properties based on organic acids” (KEMIN INDUSTRIES, INC., priority 2012, dated 2018).

What was measured:
[1] = tested on: cats; assay: Cat palatability, two-pan method (intake ratio); type: in vivo; details: for IR-A: Ration B incumbent; for effect on palatability / taste (in words): summary statement, no trial details
[2] = tested on: Salmonella (five Salmonella enterica serovars); assay: Cat kibble challenge with dried five strain Salmonella cocktail inoculum; type: cell-based; details: for Salmonella counts on challenged cat kibble vs control palatant (in words): cat kibble challenge
Method: (§1) One ml of each Salmonella culture was separately inoculated into a beaker containing tempered (ambient), sterilized MBM which was then incubated at 37° C. for 48 hours. Inoculated MBM was dispensed (approx. 200 g) into sterile 250 ml centrifuge bottles and centrifuged at 5,000 rpm for 10 minutes. The supernatant was decanted and autoclaved for disposal. The pellets were suspended in 10 ml TSB-20% glycerol. Suspensions (approximately 150-160 g) were transferred to sterilized 250 ml polycarbonate straight side wide mouth jars with lids (Nalgene, Thermo Scientific). Jars containing MBM-Salmonella suspensions were immediately frozen at −70° C. for 1 hour. Frozen MBM-Salmonella suspensions were lyophilized using a FreeZone-1 Liter benchtop freeze dry system (Labconco) (approx. 96 hours, −50° C.). Each lyophilized Salmonella culture was pulverized to a fine powder using a sterile mortar and pestle. Twenty g of each of the five lyophilized Salmonella cultures was combined in a sterile wide mouth glass jar to make the dried Salmonella cocktail inoculum. […] Solidified plates were incubated inverted at 37° C. for 16-18 hours. Visible colonies were counted and colony forming units per gram were calculated (CFU/g). […] Kibble and inoculum were mixed together for five minutes by hand in a plastic zip top bag, and allowed to rest for 1 hour prior to sampling. Coated, un-inoculated kibble was also included in the study and tested for Salmonella (direct plating and FDA BAM), total aerobic bacteria, mold and yeast counts, pH, percent moisture, and water activity. For each analysis time point challenged kibble was sampled in triplicate. Kibbles were stored at ambient temperature.
(§2) Challenged kibble samples bags were mixed thoroughly, then 5.00 g (±0.01) was aseptically weighed into a sterile plastic bag and diluted with 45 ml sterile Phosphate Buffer (Butterfield) diluent (BPB) containing (g/l) KH2PO4 34.0, pH adjusted to 7.2 with 1N sodium hydroxide and homogenized using a Stomacher (Seward Stomacher 80) for 1 minute and serially diluted in BPB for plating. The plates are poured with tempered (45° C.) XLD agar. After solidification, plates were inverted and placed in an incubator (37° C.). Colonies were counted and CFU/g was calculated. The counts for each triplicate sample were averaged and expressed as log CFU/g. Those samples of which were below the detection limit of <10 CFU/g were assigned 0 log CFU/g for the purpose of statistical analysis. Analysis of Variance using the LSD separation of means method was performed to analyze the data using StatGraphics software (StatPoint Technologies, Inc. Warrenton, Va.).
All procedures for the Phase 3 kibble challenge were conducted as described for Phase 2.

[3] = tested on: Salmonella (five Salmonella enterica serovars); assay: Dog kibble challenge with dried five strain Salmonella cocktail inoculum; type: cell-based; details: dog kibble challenge
Method: as §1, §2
Dry dog palatants were formulated with fumaric acid or SBS to deliver 0.5% acid to the surface of the kibble. The effect of each acid on Salmonella challenged on the surface of dog kibble was examined. Dog kibbles were challenged with dried five strain Salmonella cocktail inoculum.
The effect of each acid on Salmonella challenged on the surface of dog kibble was examined. Dog kibbles were challenged with dried five strain Salmonella cocktail inoculum prep.

[4] = Example 4 cat trials, formula 89-87 or 89-145 vs incumbent dry palatant
[5] = Second set, Formula 89-87, 0.5% total acid on kibble
[6] = Table 14, single acid 0.5% on cat kibble, day 0
[7] = Table 14, single acid 0.5% on cat kibble, day 1
[8] = Table 14, single acid 0.5% on cat kibble, day 3
[9] = Table 14, single acid 0.5% on cat kibble, day 7
[10] = Table 14, single acid 0.5% on cat kibble, day 14
[11] = Table 14, single acid 0.5% on cat kibble, day 23
[12] = Second set, Formula 89-87, 0.25% acid on kibble
[13] = First set, Prototype 89-87 at 2.5%, 0.25% acid on kibble
[14] = First set, Prototype 89-87 at 2.5%, 0.5% total acid on kibble

O=C(O)CC(O)(CC(=O)O)C(=O)O [CA, citric acid]
palatability (in words) [1, 4]: adequate palatability
IR-A [1, 5]: 0.46% (N.S.)
Salmonella [2, 6]: 2.05 ± 0.05^Ba log CFU/g
Salmonella [2, 7]: 1.54 ± 0.16^BCDab log CFU/g
Salmonella [2, 8]: 1.46 ± 0.09^ABb log CFU/g
Salmonella [2, 9]: 0.77 ± 0.39^ABc log CFU/g
Salmonella [2, 10]: 0.00 ± 0.00^Bd log CFU/g
Salmonella [2, 11]: 0.00 ± 0.00^Bd log CFU/g
Salmonella counts on challenged cat kibble vs control palatant (in words) [2]: effective at significantly reducing Salmonella

O=C(O)c1cc(O)c(O)c(O)c1 [GA, gallic acid]
palatability (in words) [1, 4]: very good palatability
IR-A [1, 12]: 0.55 (N.S.)
IR-A [1, 5]: 0.70 (p ≤ 0.001)

O=C(O)CC(O)C(=O)O (stereo not drawn) [Malic acid, reference compound]
effect on palatability / taste (in words) [1]: adverse effects on palatability

C/C=C/C=C/C(=O)O [Sorbic Acid, sorbic acid]
IR-A ([1]; Confirmation trials, Prototype 89-87, 0.5% total acid on kibble): 0.59 p ≤ 0.001)
palatability (in words) ([1]; Example 4 cat trials, formula 89-87 or 89-145 vs incumbent dry palatant, listed as Sorbic acid): scored significantly higher than the incumbent flavor
palatability (in words) ([1]; Example 4 cat trials, formula 89-87 or 89-145 vs incumbent dry palatant, listed as sorbic acid): remained high
IR-A [1, 13]: 0.74 (p ≤ 0.001)
IR-A [1, 14]: 0.70 (p ≤ 0.001)
Salmonella ([2]; Table 12, 0.50% total acid on cat kibble, day 0): 3.50 ± 0.06^Ba log CFU/g
Salmonella ([2]; Table 12, 0.50% total acid on cat kibble, day 1): 2.10 ± 0.08^Bb log CFU/g
Salmonella ([2]; Table 12, 0.50% total acid on cat kibble, day 5): 0.77 ± 0.39^Bc log CFU/g
Salmonella ([2]; Table 12, 0.50% total acid on cat kibble, day 7): 0.49 ± 0.49^Bc log CFU/g
Salmonella ([2]; Table 12, 0.50% total acid on cat kibble, day 14): 0.67 ± 0.33^Bc log CFU/g
Salmonella ([2]; Table 12, 0.50% total acid on cat kibble, day 21): 0.00 ± 0.00^Bc log CFU/g
Salmonella counts on challenged cat kibble vs control palatant (in words) ([2]; listed as sorbic): effective at significantly reducing Salmonella
Salmonella counts on challenged cat kibble vs control palatant (in words) ([2]; listed as sorbic acid): significantly lower
Salmonella counts on challenged dog kibble vs control palatant (in words) [3]: effective at significantly reducing Salmonella

O=C(O)CCC(=O)O [Suc, succinic acid]
palatability (in words) [1, 4]: palatable alternate to fumaric acid
IR-A [1, 13]: 0.56 (N.S.)
IR-A [1, 14]: 0.54 (N.S.)
Salmonella counts on challenged cat kibble vs control palatant (in words) [2]: effective at significantly reducing Salmonella
Salmonella counts on challenged dog kibble vs control palatant (in words) [3]: effective at significantly reducing Salmonella

O=C(OC[C@H]1O[C@@H](OC(=O)c2cc(O)c(O)c(OC(=O)c3cc(O)c(O)c(O)c3)c2)[C@H](OC(=O)c2cc(O)c(O)c(OC(=O)c3cc(O)c(O)c(O)c3)c2)[C@@H](OC(=O)c2cc(O)c(O)c(OC(=O)c3cc(O)c(O)c(O)c3)c2)[C@@H]1OC(=O)c1cc(O)c(O)c(OC(=O)c2cc(O)c(O)c(O)c2)c1)c1cc(O)c(O)c(OC(=O)c2cc(O)c(O)c(O)c2)c1 [TA, tannic acid]
palatability (in words) [1, 4]: acceptable palatability
IR-A [1, 12]: 0.55 (N.S)
Salmonella [2, 6]: 3.19 ± 0.17^Aa log CFU/g
Salmonella [2, 7]: 2.51 ± 0.26^Ab log CFU/g
Salmonella [2, 8]: 2.05 ± 0.18^Ab log CFU/g
Salmonella [2, 9]: 1.50 ± 0.10^Ac log CFU/g
Salmonella [2, 10]: 1.46 ± 0.16^Ac log CFU/g
Salmonella [2, 11]: 0.00 ± 0.00^Bd log CFU/g
Salmonella counts on challenged cat kibble vs control palatant (in words) [2]: effective at significantly reducing Salmonella

O=C(O)/C=C\C(=O)O [maleic acid, reference compound]
effect on palatability / taste (in words) [1]: repulsive, astringent taste

O=C(O)C(O)C(O)C(=O)O (stereo not drawn) [tartaric acid, reference compound]
palatability (in words) ([1]; Example 1 cat trials, dry palatant 1.5% on kibble, vs benchmark): significant declines in palatability
IR ([1]; Trial 412, 33% tartaric acid in formula, palatant 1.5% on kibble, vs name brand cat food): 0.24
effect on palatability / taste (in words) [1]: adverse effects on palatability
